In US5132424A, “Pyrazolo-pyrrolo-pyrimidine-diones” (The Upjohn Company, priority 1991, dated 1992):

Key:
ACAT enzyme [1] = assay: ACAT Inhibition Assay (inhibition of cholesterol esterification in cultured Fu5AH rat hepatoma cells); assay type: cell-based; parameters: key to Activity: Active: Compounds with ACAT inhibiting activity equal to, or greater than, that of chloropromazine are declared active; conditions: for % Inhib. of Chol. Esterf.: Fu5AH cells, 18 hours; for Activity: compared with chlorpromazine
From the text: A standard in vitro test system designed to identify compounds capable of inhibitory the ACAT enzyme in cultured Fu5AH rat hepatoma cells which was used to test the compounds of this invention, among others, is described hereinbelow.
Since the ACAT enzyme in Fu5AH cells is similar if not identical to the ACAT enzyme in arterial tissue in valuable, warm-blooded animals, including humans, the Fu5AH cell test represents a more efficient, simplified and economical means of screening for ACAT inhibitors than similar assays which depend upon the use of arterial tissue and arterial subfractions as the source of the ACAT enzyme.
For our in vitro test the Fu5AH rat hepatoma cell line was selected as our source of the ACAT enzyme since this particular cell line mimicked important characteristics of human and valuable animal arterial cells during the development of atherosclerosis. The Fu5AH cells accumulate cholesterol extensively when incubated with hyperlipemic plasma proteins; more importantly, Fu5HA cells accumulated the cholesterol predominantly as the esterified form through the action of the ACAT enzyme. See Rothblat, G. H., "Cholesteryl Ester Metabolism in Tissue Culture Cell. I. Accumulation in Fu5AH Rat Hepatoma Cells", Lipids, 9, (1974) page 526.
The Fu5AH cells used in our in vitro assay were first acquired from G. H. Rothblat, supra, of the Medical College of Pa.
The Fu5AH rat hepatoma cell-line was derived from the Reuber H-35 rat hepatoma. (See Reuber, M.D., "A Transplantable Bilesecreting Hepatocellular Carcinoa in the Rat", J. Natl., Cancer Inst., 26 (1961), page 891. The cell-line is maintained in Eagle's Minimal Essential Medium (MEM, GiBCO) supplemented with 5% bovine fetal calf serum. Incubation is at 36° C. in an atmosphere of 5% CO2 in air (Hotpack, Model 351922). Cells from stock cultures, grown to confluency in 25 cm^2 flasks (Falcon) containing 10 ml. medium, are detached with 0.25% trypsin in 1% ethylenediaminetetraacetic acid (EDTA) (Gibco), diluted 1:10 with MEM and mixed by agitation through a pipette which serves to disrupt the cellular clumps. Stock cultures are replenished with fresh medium at 3 to 4 day intervals.
One ml. aliquots of the diluted stock suspension described above are then transferred to 60 mm. dishes (Falcon) containing four ml. MEM and the seeded cells are allowed to grow to confluence (three days). At confluence, the medium is removed by aspiration and the cells are washed once with MEM. Five ml. of MEM supplemented with 5% hyperlipemic rabbit serum (HRS) (HRS is obtained from male New Zealane rabbits fed Purina Chow® rabbit feed supplemented with 1% cholesterol and 3% peanut oil (w/w/w/) for two to three weeks. Pooled sera from two or more rabbits are filtered through a 0.45 mμ filter (Nalgene) and stored frozen in convenient aliquots until used) and containing 1μ Ci/ml of ^3 H-cholesterol are then added to the dishes as the experimental (assay) medium. The experimental medium is labeled with 1,2-^3 H(N)-cholesterol (sp. act. approx. 40-60 Ci/mol, New Zealand Nuclear Corp.) prior to its addition to the confluent cultures and is prepared as follows. Five ml. of HRS is diluted with approximately 20 ml of MEM and the mixture is labeled by the addition of 100 μCi ^3 H-cholesterol dissolved in 100 μl absolute ethyl alcohol. The resulting mixture is then incubated for four hours at 36° C. to permit equilibration of the labeled cholesterol with the serum lipoprotein-cholesterol. After the equilibration period, the mixture is diluted to 100 ml. with MEM and used as the labeled assay medium. Following the addition of the labeled medium to the dishes, dimethylsulfoxide solutions of the test substances and the positive standard chloropromazine HCl (1 mg/ml) are added to the cultures in volumes of 25, 50, […]; control cultures receive equivalent volumes of dimethylsufoxide alone. […]

[2] = system: Moderately Hypercholesterolemic Quail; assay: In vivo testing in moderately hypercholesterolemic quail (serum LDL cholesterol); parameters: species or system Japanese quail; conditions: compound in diet, two weeks
From the text: Male SEA Japanese quail, approximately four to six weeks of age, were reared at Miles Quail Farm, Gobles, Mich. from a colony of animals originally derived at The Upjohn Company. Birds were randomly distributed into ten groups of ten quail each. They were house individually in ten cage units and fed a commercial diet (Purina Game Bird Layena, Ralston Purina Co., St. Louis, Mo.) mixed with various amounts of cholesterol with and without 1% peanut oil. Compounds were mixed into 2.4 kg of the diet using a feed mixer (Hobard A-200) for twenty minutes. Control groups received normal diet. In one series of experiments birds were fed 0.5% cholesterol/1% peanut oil plus colestipol hydrochloride. After two weeks on the diets, each bird was bled from the right jugular vein and serum samples were obtained after low speed centrifugation. Food intake was determined for each group by subtracting the weight of diet remaining at the end of the experiment from the weight of the starting diet.
Beta- and alpha-lipoproteins were isolated from individual serum samples using PEG-8000 and glycerine buffer, pH 9 (9). Three hundred microliters of serum were mixed with 300 microliters of solution. A (20 grams of PEG-8000 plus 100 ml of glycerine buffer, pH 9) using a Micromedic automatic pipet. Samples were allowed to stand at room temperature for ten minutes and then were centrifuged for twenty minutes at 2000× g at 4° C. The beta-lipoprotein pellet was dissolved in 300 microliters of solution B (10 ml Triton X-100 plus 1000 ml Milli Q water). Cholesterol, triglycerides and total protein in alpha- and beta-lipoproteins were measured using the Deman Autoanalyzer, Model AU 500 (Cooper Biomedical Inc.) and Worthington Demand Enzymatic reagents.
All data were statistically analyzed using a one-way classification design. Values were transformed to logarithms to achieve more homogenous within-group variances. The mean response for each diet and for the effect was compared with the mean observed in the control animals by the LSD test. Treated/control ratios of antilogs of the log means are also presented.

ACAT enzyme [3] = conditions: known drug; cited from earlier work
membranes = conditions: known drug; cited from earlier work
[4] = system: blood platelet aggregation; conditions: known drug; cited from earlier work

Row | Structure (SMILES) | % Inhib. of Chol. Esterf. (ACAT enzyme [1]; 5.0 ug/ml) [%] | Activity (ACAT enzyme [1]; 5.0 ug/ml) | % Inhib. of Chol. Esterf. (ACAT enzyme [1]; 10.0 ug/ml) [%] | Activity (ACAT enzyme [1]; 10.0 ug/ml) | % Inhib. of Chol. Esterf. (ACAT enzyme [1]; 15.0 ug/ml) [%] | Activity (ACAT enzyme [1]; 15.0 ug/ml) | Percent Change in Serum LDL Cholesterol From Control [2] [%] | potency for ACAT enzyme inhibition (in words) (ACAT enzyme [1]; among the compounds of Table I) | ACAT enzyme inhibition (in words) (ACAT enzyme [3]) | change of membrane fluidity (in words) (membranes) | blood platelet aggregation inhibition (in words) [4]
1 | C=CCCCCn1c2c(c(=O)n3nc(-c4ccccc4)cc13)CN(C1CCCCC1)C2=O [Example 1, 6-Cyclohexyl-4-(5-hexenyl)-6,7-dihydro-2-phenyl-4H-pyrazolo[1,5-a]pyrrolo[3,4-d]pyrimidine-5,8-dione] | 68.6 | Active | 93.2 | Active | 96.1 | Active | -42 | – | – | – | –
2 | O=C1c2c(c(=O)n3nc(-c4ccccc4)cc3n2Cc2ccccc2)CN1C1CCCCC1 [Example 2, 6-Cyclohexyl-6,7-dihydro-2-phenyl-4-(phenylmethyl)-4H-pyrazolo[1,5-a]pyrrolo[3,4-d]pyrimidine-5,8-dione] | 60.1 | Active | 87.7 | Active | 93.6 | Active | -50 | – | – | – | –
3 | O=C(Cn1c2c(c(=O)n3nc(-c4ccccc4)cc13)CN(C1CCCCC1)C2=O)c1ccccc1 [Example 4, 4-(Benzoylmethyl)-6-cyclohexyl-6,7-dihydro-2-phenyl-4H-pyrazolo[1,5-a]pyrrolo-[3,4-d]pyrimidine-5,8-dione] | 88.6 | Active | 92.2 | Active | 91.9 | Active | -59 | most potent compound | – | – | –
4 | CN(C)CCCN1c2ccccc2Sc2ccc(Cl)cc21 [chlorpromazine] | – | – | – | – | – | – | – | – | ACAT enzyme inhibitor | change the fluidity of membranes | blood platelet aggregation inhibition properties
